Assay results taken from ChEMBL document CHEMBL5325408, “Design, synthesis, and biological activity studies on benzimidazole derivatives targeting myeloperoxidase” (Eur J Med Chem, 2023).

Legend:
[1] = target: T1, Myeloperoxidase (Homo sapiens) (UniProt P05164); test: Inhibition of human MPO using taurine as substrate assessed as reduction in substrate chlorination at 20 uM incubated for 30 mins by taurine-chloramine assay relative to control
T1 sequence (whole entry): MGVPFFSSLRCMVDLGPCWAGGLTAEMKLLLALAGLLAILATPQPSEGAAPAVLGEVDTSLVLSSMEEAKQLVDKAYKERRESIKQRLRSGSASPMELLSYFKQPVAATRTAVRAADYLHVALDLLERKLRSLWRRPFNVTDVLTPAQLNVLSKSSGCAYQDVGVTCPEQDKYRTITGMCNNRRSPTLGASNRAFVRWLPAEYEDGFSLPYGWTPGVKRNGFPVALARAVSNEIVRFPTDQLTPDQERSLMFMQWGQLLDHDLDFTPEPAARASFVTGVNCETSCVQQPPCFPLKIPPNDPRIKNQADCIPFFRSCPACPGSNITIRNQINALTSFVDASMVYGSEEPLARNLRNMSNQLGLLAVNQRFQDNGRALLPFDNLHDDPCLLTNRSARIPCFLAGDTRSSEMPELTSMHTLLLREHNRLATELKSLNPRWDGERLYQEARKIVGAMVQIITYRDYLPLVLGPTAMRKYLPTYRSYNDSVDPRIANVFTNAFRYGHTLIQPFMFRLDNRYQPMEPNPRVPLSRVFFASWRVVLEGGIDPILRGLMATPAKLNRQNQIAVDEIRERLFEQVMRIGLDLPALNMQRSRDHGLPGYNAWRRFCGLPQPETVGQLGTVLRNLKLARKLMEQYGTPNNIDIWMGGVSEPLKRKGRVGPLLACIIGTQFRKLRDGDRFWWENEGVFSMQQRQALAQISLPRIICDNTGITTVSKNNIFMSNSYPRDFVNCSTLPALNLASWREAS

[2] = target: T2, Myeloperoxidase (Homo sapiens, UniProt P05164); test: Inhibition of human MPO using taurine as substrate assessed as reduction in substrate chlorination incubated for 30 mins by taurine-chloramine assay
T2 sequence (P05164 whole entry): T1 sequence (whole entry)

[3] = target: T1, Myeloperoxidase (Homo sapiens); test: Inhibition of human MPO peroxidase activity at 100 uM incubated in presence of H2O2 by amplex red assay relative to control
[4] = Antioxidant activity assessed as HOCl scavenging activity at 100 uM incubated for 10 mins in presence of TNB and taurine by absorbance based assay relative to control; format: functional
[5] = target: T2, Myeloperoxidase; test: Inhibition of human MPO peroxidase activity incubated in presence of H2O2 by amplex red assay

| SMILES | inhibition [1] | other results |
| --- | --- | --- |
| Cc1ccccc1NC(=O)CSc1nc2ccccc2[nH]1 | 44.9% | – |
| O=C(Cn1c(Cl)nc2ccccc21)N1CCCCC1 | 29.1% | – |
| O=C(Cn1c(Cl)nc2ccccc21)Nc1ccc([N+](=O)[O-])cc1 | 54% | – |
| COc1ccccc1NC(=O)Cn1c(Cl)nc2ccccc21 | 39.3% | – |
| O=C(Cn1c(Cl)nc2ccccc21)NCc1ccccc1 | 24.9% | – |
| O=C(CSc1nc2ccccc2[nH]1)Nc1ccccc1Cl | 54.4% | – |
| COc1cccc(NC(=O)Cn2c(Cl)nc3ccccc32)c1 | 46.6% | – |
| O=C(CSc1nc2ccccc2[nH]1)N1CCOCC1 | 35.9% | – |
| O=C(CSc1nc2ccccc2[nH]1)NCc1ccccc1 | 63.6% | – |
| COc1ccc(NC(=O)Cn2c(Cl)nc3ccccc32)cc1 | 36.9% | – |
| COc1ccccc1NC(=O)CSc1nc2ccccc2[nH]1 | 72.6% | IC50 [2]: 10.4 µM; inhibition [3]: 0% |
| COc1cc(NC(=O)CSc2nc3ccccc3[nH]2)cc(OC)c1OC | 68.9% | – |
| Cc1cccc(NC(=O)CSc2nc3ccccc3[nH]2)c1 | 92.5% | IC50 [2]: 6.41 µM; inhibition [3]: 4.3% |
| O=C(CSc1nc2ccccc2[nH]1)Nc1ccc([N+](=O)[O-])cc1 | 62.1% | – |
| O=C(CSc1nc2ccccc2[nH]1)N1CCCCC1 | 32% | – |
| O=C(Cn1c(Cl)nc2ccccc21)Nc1ccccc1[N+](=O)[O-] | 31.8% | – |
| O=C(CSc1nc2ccccc2[nH]1)Nc1cccc(Cl)c1 | 56.1% | – |
| COc1cc(NC(=O)Cn2c(Cl)nc3ccccc32)cc(OC)c1OC | 35.7% | – |
| O=C(CSc1nc2ccccc2[nH]1)Nc1cccc([N+](=O)[O-])c1 | 62.3% | – |
| COc1ccc(NC(=O)CSc2nc3ccccc3[nH]2)cc1 | 50% | – |
| O=C(Cn1c(Cl)nc2ccccc21)Nc1cccc([N+](=O)[O-])c1 | 44% | – |
| O=C(CSc1nc2ccccc2[nH]1)Nc1ccccc1[N+](=O)[O-] | 48.5% | – |
| COc1cccc(NC(=O)CSc2nc3ccccc3[nH]2)c1 | 61.4% | – |
| O=C(Cn1c(Cl)nc2ccccc21)N1CCOCC1 | 32.7% | – |

The next lines start with results.

| inhibition [1] | SMILES | other results |
| --- | --- | --- |
| 52.2% | O=C(Cn1c(=S)[nH]c2ccccc21)N1CCOCC1 | – |
| 94.3% | COc1ccccc1NC(=O)Cn1c(=S)[nH]c2ccccc21 | IC50 [2]: 3.72 µM; inhibition [3]: 19.1%; Activity [4]: 8.77% |
| 85.3% | O=C(Cn1c(=S)[nH]c2ccccc21)Nc1ccc(Cl)cc1 | IC50 [2]: 7.76 µM; inhibition [3]: 21.7%; Activity [4]: 5.85% |
| 62.6% | COc1cc(NC(=O)Cn2c(=S)[nH]c3ccccc32)cc(OC)c1OC | – |
| 51.2% | O=C(Cn1c(=S)[nH]c2ccccc21)NO | – |
| 36.5% | Cc1ccc(NC(=O)Cn2c(Cl)nc3ccccc32)cc1 | – |
| 28.5% | Cc1ccccc1NC(=O)Cn1c(Cl)nc2ccccc21 | – |
| 93% | Cc1ccccc1NC(=O)Cn1c(=S)[nH]c2ccccc21 | IC50 [2]: 4.26 µM; inhibition [3]: 24%; Activity [4]: 0.94% |
| 50% | O=C(CSc1nc2ccccc2[nH]1)Nc1ccccc1 | – |
| 67.8% | O=C(Cn1c(Cl)nc2ccccc21)Nc1cccc(Cl)c1 | – |
| 89.4% | O=C(Cn1c(=S)[nH]c2ccccc21)Nc1ccccc1Cl | IC50 [2]: 6.67 µM; inhibition [3]: 47.6%; Activity [4]: 5.47% |
| 91.4% | Cc1cccc(NC(=O)Cn2c(=S)[nH]c3ccccc32)c1 | IC50 [2]: 3.86 µM; inhibition [3]: 26.7%; Activity [4]: 6.79% |
| 93.2% | NNC(=O)Cn1c(=S)[nH]c2ccccc21 | IC50 [2]: 0.39 µM; inhibition [3]: 71%; IC50 [5]: 82.7 µM |
| 95.3% | O=C(Cn1c(=S)[nH]c2ccccc21)NCc1ccccc1 | IC50 [2]: 4.33 µM; inhibition [3]: 53.3%; IC50 [5]: 97.3 µM |
| 61.4% | O=C(Cn1c(=S)[nH]c2ccccc21)Nc1ccc([N+](=O)[O-])cc1 | – |
| 58.2% | O=C(Cn1c(=S)[nH]c2ccccc21)N1CCCCC1 | – |

| inhibition [1] | SMILES | other results |
| --- | --- | --- |
| 34.8% | Cc1cccc(NC(=O)Cn2c(Cl)nc3ccccc32)c1 | – |
| 75.7% | O=C(Cn1c(=S)[nH]c2ccccc21)Nc1cccc(Cl)c1 | IC50 [2]: 9.44 µM; inhibition [3]: 29.8%; Activity [4]: 1.04% |
| 70.2% | O=C(Cn1c(=S)[nH]c2ccccc21)Nc1ccccc1[N+](=O)[O-] | IC50 [2]: 5.63 µM; inhibition [3]: 22.6% |
| 61.9% | O=C(Cn1c(=S)[nH]c2ccccc21)Nc1cccc([N+](=O)[O-])c1 | – |
| 33.3% | CCOC(=O)Cn1c(Cl)nc2ccccc21 | – |
| 65.5% | COc1cccc(NC(=O)Cn2c(=S)[nH]c3ccccc32)c1 | – |
| 27.9% | O=C(Cn1c(Cl)nc2ccccc21)Nc1ccccc1 | – |
| 51.3% | CCOC(=O)Cn1c(=S)[nH]c2ccccc21 | – |
| 52.6% | O=C(CSc1nc2ccccc2[nH]1)Nc1ccc(Cl)cc1 | – |
| 63.8% | O=C(Cn1c(Cl)nc2ccccc21)Nc1ccc(Cl)cc1 | – |
| 73% | Cc1ccc(NC(=O)CSc2nc3ccccc3[nH]2)cc1 | IC50 [2]: 8.51 µM; inhibition [3]: 0% |
| 21.9% | O=C(Cn1c(Cl)nc2ccccc21)Nc1ccccc1Cl | – |
| 91.9% | O=C(Cn1c(=S)[nH]c2ccccc21)Nc1ccccc1 | IC50 [2]: 5.64 µM; inhibition [3]: 57.5%; IC50 [5]: 95.4 µM |
| 41.1% | Cc1ccc(NC(=O)Cn2c(S)nc3ccccc32)cc1 | – |
| 81.7% | COc1ccc(NC(=O)Cn2c(=S)[nH]c3ccccc32)cc1 | IC50 [2]: 4.08 µM; inhibition [3]: 30.5%; Activity [4]: 2.83% |
